Assay results as given in patent US9243036B2, “Anti-microbial activity of synthetic peptides” (THE UNITED STATES OF AMERICA, as represented by the …, priority 2012, dated 2016).
Residues, ends and D or L forms follow the SMILES beside them.

Tested on: other bacteria tested
Assay: 2 h incubation of mid-logarithmic cultures with peptide, CFU on NA plates
Assay type: cell-based
Conditions: even at 50 μg/ml
Description: All bacterial strains used in this study originated from ATCC (Manassas, Va.): S. aureus (ATCC 25923; ATCC 35548), S. epidermidis (ATCC 35983), E. coli (ATCC 700928; ATCC 25922), P. aeruginosa (ATCC 27853; ATCC 12121), K pneumoniae (ATCC 10031; ATCC 13885) and B. cereus (ATCC 11778). Cultures were maintained and subcultured periodically on nutrient agar plates and stored at 4 to 8° C. until tested. Stock cultures of all bacteria were stored in tryptic soy broth with 10% glycerol at −70° C. Log-phase cultures of bacteria grown in Miller's Luria-Bertani (LB) broth (Mediatech Inc, Herndon, Va.) were concentrated by centrifugation at 3000×g and dilutions were prepared with phosphate-buffered saline (PBS; pH 7.4) (Mediatech Inc, Herndon, Va.). In all experiments bacterial titers were estimated by optical density and confirmed by quantitative culture by plating on nutrient agar (NA) plates.
Mid-logarithmic phase cultures of bacteria with an inoculum of 10^5 CFU/ml were incubated with peptide concentrations ranging from 0 to 50 μg/ml in a shaker incubator for 2 h following which the samples were plated on NA agar plates and CFU determined.

**Q.** Which “activity against the other bacteria tested” value does the source give for `CC[C@H](C)[C@H](NC(=O)[C@H](CCCCN)NC(=O)[C@H](CCCNC(=N)N)NC(=O)[C@H](Cc1ccccc1)NC(=O)[C@H](CC(C)C)NC(=O)[C@H](CC(C)C)NC(=O)[C@@H](N)CCCNC(=N)N)C(=O)N[C@@H](CCCNC(=N)N)C(=O)N[C@@H](CCCNC(=N)N)C(=O)N[C@@H](CC(C)C)C(=O)N[C@@H](CCCCN)C(=O)N[C@@H](CCCNC(=N)N)C(=O)O` [EC5, RLLFRKIRRLKR] (H-RLLFRKIRRLKR-OH; N-terminus and C-terminus assumed) here?
**A.** The value was “no activity”.
